Laboratory results as given in patent US11447505B1, “Pyrrolo[2,3-b]pyridine compounds and their use in the treatment of cancer” (priority 2017, dated 2022).
Entries after “also recorded” stand apart in the source; their conditions may differ. Each block holds one compound with its values, some of them ahead of it.

How the values were obtained:
E2 cells [1] = experiment: Neurite morphology, automated image analysis; assay type: cell-based, human; conditions: cells treated with irradiation
Source text: (§4) FIG. 4. […] N.S.=not significant. […] Cells were imaged using an Operetta high-throughput imaging platform. Red: actin, blue: DAPI, Scale bar: 100 μm. Automated image analysis was undertaken to quantify changes in neurite morphology. Data from >1000 cells.

pMYPT1 = pMYPT1 IHC of brain sections from mice bearing G7 intracranial tumours; assay type: in vivo, mouse; conditions: 3×2 Gy whole brain RT + 5 mg/kg twice daily for 10 days; listed as BDP-9066
Experimental: (§5) Female CD1 nude mice were orthotopically injected with 1×10^5 G7 or U87MG cells into the subventricular zone as previously described (16, 17). Tumours were allowed to establish for before magnetic resonance imaging (MRI) to confirm presence of tumour. Radiation treatments were conducted using an XSrtahl Small Animal Radiation Research Platform (SARRP). […] Tumours were sub-dissected and fresh frozen specimens sent for PK analysis (Vertex, UK). Formalin fixed, paraffin embedded sections were stained for Ki67, HLA or phosphoMYPT1 then scanned using a Hamamatsu Nanozoomer Slide scanning machine with Leica SlidePath Slide imaging software. Algorithms were optimised for each stain individually and automated, quantitative analysis undertaken. The defining of contralateral regions was performed blinded.
(§6) Tumours were sub-dissected from normal brain tissue and analysed by mass spectrometry to determine total compound levels (‘Total’). […] G7 intracranial tumours were allowed to establish for 12 weeks before initiation of treatment. The study was randomised and blinded. […] (D) Brain sections were stained by IHC for pMYPT1 levels (i). Levels of nuclear and cytoplasmic pMYPT1 were quantified by automated analysis using SlidePath. Statistical analysis: two tailed, unpaired t test. *p<0.05.

ROCK2 = ROCK2 (Homo sapiens (Human), UniProt O75116); experiment: ROCK2 kinase assay (IMAP fluorescence polarization); assay type: biochemical; conditions: 1 μM ATP; read-out: ROCK2 Average Ki
Sequence of ROCK2 (O75116 whole entry): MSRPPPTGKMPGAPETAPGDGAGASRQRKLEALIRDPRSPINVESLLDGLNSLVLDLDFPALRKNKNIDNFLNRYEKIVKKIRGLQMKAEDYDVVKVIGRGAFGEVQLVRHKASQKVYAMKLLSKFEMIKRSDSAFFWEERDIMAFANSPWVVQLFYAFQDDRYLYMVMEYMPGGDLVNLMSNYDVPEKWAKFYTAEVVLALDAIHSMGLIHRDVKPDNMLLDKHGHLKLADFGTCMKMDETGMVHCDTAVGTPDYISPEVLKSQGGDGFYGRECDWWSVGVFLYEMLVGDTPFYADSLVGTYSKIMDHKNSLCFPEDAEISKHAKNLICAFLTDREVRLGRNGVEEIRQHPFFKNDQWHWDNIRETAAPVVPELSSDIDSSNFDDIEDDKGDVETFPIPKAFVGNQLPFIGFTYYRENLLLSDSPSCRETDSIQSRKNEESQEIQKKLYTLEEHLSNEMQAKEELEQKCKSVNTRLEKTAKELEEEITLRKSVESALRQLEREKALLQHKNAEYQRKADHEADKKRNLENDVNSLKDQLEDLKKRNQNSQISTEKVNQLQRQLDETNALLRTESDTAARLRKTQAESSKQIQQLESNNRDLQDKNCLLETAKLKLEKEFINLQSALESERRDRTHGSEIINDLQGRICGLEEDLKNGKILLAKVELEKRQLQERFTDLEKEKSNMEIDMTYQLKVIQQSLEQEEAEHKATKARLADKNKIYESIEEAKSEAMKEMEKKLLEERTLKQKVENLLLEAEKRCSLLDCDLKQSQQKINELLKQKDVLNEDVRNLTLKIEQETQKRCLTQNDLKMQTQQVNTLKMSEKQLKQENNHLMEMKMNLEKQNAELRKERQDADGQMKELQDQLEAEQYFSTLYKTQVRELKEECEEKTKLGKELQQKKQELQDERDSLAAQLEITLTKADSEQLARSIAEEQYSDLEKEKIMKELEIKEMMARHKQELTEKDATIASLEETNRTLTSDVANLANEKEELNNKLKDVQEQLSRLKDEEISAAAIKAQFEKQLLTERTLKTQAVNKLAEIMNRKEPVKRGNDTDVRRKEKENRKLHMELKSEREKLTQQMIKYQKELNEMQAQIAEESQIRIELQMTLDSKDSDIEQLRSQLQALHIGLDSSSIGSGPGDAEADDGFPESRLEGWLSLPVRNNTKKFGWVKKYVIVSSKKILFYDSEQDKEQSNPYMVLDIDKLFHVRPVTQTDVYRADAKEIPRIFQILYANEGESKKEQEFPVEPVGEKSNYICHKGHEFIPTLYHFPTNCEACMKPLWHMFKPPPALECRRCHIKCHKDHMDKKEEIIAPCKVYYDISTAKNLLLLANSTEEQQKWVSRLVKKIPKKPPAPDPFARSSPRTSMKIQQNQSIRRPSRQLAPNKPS

G7 and E2 cells = experiment: Clonogenic survival assay with irradiation; assay type: cell-based, human; conditions: 100 nM, G7 or E2 cells
Source text: as §4

MRCKβ [2] = target: T1, MRCKβ (Homo sapiens (Human), UniProt Q9Y5S2); experiment: MRCKβ kinase assay (IMAP fluorescence polarization); assay type: biochemical; conditions: 1 μM ATP; read-out: MRCK-B Average Ki
Source text: (§1) MRCKα, MRCKβ, ROCK1 and ROCK2 Kinase Assays

MRCKα = MRCKα (Homo sapiens (Human), UniProt Q5VT25); experiment: MRCKα kinase assay (IMAP fluorescence polarization); assay type: biochemical; conditions: 1 μM ATP; read-out: MRCK-a Average Ki
Sequence of MRCKα (Q5VT25 whole entry): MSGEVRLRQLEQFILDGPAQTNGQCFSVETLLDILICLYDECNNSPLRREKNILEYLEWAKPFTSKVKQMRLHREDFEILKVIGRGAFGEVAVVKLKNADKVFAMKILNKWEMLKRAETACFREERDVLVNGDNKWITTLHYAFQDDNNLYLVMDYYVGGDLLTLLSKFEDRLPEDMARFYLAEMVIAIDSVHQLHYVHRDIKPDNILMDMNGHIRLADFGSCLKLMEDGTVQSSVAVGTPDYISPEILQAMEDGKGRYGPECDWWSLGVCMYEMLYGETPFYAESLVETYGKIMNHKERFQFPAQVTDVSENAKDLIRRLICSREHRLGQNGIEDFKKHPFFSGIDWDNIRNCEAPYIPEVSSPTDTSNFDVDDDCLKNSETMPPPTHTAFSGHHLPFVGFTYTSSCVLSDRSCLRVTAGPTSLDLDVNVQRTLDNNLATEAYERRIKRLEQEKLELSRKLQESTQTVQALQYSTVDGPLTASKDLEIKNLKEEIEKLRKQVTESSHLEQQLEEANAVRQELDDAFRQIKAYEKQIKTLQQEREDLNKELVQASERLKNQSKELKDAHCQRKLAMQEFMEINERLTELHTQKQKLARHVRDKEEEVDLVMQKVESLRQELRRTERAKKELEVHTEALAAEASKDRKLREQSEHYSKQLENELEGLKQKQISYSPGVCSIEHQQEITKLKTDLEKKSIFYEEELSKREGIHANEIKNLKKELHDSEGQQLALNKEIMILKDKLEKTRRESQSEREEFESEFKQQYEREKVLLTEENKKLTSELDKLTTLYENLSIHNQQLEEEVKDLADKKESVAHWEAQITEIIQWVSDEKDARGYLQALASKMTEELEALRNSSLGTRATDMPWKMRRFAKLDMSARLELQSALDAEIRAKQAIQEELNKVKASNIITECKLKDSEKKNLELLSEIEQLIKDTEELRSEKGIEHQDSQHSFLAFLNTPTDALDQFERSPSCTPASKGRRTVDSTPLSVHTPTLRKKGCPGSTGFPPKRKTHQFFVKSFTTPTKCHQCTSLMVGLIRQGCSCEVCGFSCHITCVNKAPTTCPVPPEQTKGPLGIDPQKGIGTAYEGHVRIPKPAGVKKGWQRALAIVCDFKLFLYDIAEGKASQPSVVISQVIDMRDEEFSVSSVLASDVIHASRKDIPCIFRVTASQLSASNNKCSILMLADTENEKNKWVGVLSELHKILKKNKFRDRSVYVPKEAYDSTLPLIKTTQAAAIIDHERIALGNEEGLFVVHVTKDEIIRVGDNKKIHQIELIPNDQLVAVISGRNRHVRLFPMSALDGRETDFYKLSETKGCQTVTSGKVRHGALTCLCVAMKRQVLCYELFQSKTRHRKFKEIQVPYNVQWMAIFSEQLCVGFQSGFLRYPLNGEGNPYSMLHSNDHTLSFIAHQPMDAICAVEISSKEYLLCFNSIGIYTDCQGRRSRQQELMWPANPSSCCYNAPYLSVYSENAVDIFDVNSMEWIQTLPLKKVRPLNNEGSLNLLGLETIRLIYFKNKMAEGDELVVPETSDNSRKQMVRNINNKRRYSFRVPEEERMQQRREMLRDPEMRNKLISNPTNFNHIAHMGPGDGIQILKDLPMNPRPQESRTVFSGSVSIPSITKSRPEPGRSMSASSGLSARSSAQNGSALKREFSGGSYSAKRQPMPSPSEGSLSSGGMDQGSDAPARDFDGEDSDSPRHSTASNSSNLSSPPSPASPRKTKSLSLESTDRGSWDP
Source text: as §1

G7 cells = experiment: Cell viability assay; assay type: cell-based, human
Source text: as §4

E2 and G7 cells = experiment: Sub confluent migration assay of irradiated GBM cells (timelapse, single cell tracking); assay type: cell-based, human; conditions: 2 Gy
ROCK1 [3] = target: T2, ROCK1 (Homo sapiens (Human), UniProt Q13464); experiment: ROCK1 cellular assay (pMLC T18/S19 immunoblot, MDA-MB-231 cells with doxycycline inducible kinase domain); assay type: cell-based; conditions: MDA-MB-231 cells, doxycycline inducible kinase domain, 60 minutes, pMLC (T18/S19); read-out: Cellular assay - ROCK1 inhibition MEAN
T2 sequence (Q13464 2-1354 limits assumed): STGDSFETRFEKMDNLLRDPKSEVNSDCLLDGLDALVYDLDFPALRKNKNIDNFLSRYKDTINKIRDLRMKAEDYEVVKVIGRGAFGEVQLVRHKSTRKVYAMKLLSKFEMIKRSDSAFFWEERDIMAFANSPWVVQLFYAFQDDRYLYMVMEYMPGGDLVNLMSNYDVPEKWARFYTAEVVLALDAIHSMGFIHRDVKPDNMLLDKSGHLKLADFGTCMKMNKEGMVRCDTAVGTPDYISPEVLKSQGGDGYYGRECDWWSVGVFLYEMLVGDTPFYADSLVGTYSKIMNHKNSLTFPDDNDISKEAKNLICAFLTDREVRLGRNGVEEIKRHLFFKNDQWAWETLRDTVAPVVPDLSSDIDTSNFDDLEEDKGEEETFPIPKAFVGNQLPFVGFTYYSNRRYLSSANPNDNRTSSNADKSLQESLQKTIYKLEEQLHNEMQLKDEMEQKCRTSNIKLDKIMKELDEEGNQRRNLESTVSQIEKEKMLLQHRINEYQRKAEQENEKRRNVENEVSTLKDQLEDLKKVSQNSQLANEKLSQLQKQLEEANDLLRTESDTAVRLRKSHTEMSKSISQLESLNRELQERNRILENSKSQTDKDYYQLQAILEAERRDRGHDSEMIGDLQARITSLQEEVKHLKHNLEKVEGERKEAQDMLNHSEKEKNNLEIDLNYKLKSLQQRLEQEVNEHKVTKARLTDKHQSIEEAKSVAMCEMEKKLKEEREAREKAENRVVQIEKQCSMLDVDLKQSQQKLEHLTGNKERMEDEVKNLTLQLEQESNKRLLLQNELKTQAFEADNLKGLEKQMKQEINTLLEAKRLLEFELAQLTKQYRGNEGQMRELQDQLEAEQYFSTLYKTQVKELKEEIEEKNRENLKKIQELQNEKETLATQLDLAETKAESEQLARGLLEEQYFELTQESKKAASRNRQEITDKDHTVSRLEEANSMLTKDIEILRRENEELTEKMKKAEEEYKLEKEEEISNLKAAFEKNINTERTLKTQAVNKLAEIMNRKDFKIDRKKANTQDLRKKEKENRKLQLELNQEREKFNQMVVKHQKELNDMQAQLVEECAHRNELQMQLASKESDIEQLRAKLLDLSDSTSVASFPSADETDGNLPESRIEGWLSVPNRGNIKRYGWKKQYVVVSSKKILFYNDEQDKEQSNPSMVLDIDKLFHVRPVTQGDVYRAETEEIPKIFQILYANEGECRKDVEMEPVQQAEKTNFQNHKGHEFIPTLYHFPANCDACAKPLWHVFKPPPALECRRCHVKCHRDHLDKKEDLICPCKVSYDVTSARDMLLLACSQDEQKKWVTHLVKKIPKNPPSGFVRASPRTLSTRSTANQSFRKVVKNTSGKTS
Experimental: (§2) MRCKβ, ROCK1 and ROCK2 Cellular Assays
(§3) MDA-MB-231 cells expressing doxycycline inducible ROCK1, ROCK2 or MRCKβ kinase domains were plated at 1.1×10^5 cells per well of a 12 well plate. After 24 hours, cells were treated with 1 μg/ml doxycycline for 18 hours to induce kinase domain expression and then tested over a suitable concentration range with compounds of the invention for 60 minutes. Cells were then washed with PBS and lysed with Tris-SDS lysis Buffer (50 mM Tris-HCl pH7.4, 0.5% (v/v) SDS, 1×PhosStop Inhibitors (04 906 837 001; Roche) and 1×Complete Protease Inhibitors (04 693 124 001; Roche)). Whole cell lysates were clarified by passing through QIAshredder spin columns, separated by SDS-PAGE, and quantitative immunoblotting performed using a LI-COR Odyssey IR scanner to determine pMLC (T18/S19) and α-Tubulin levels.

MRCKβ [4] = target: T1, MRCKβ; experiment: MRCKβ cellular assay (pMLC T18/S19 immunoblot, MDA-MB-231 cells with doxycycline inducible kinase domain); assay type: cell-based; conditions: MDA-MB-231 cells, doxycycline inducible kinase domain, 60 minutes, pMLC (T18/S19); read-out: Cellular assay - MRCK-b inhibition MEAN
Experimental: as §2, §3

[5] = target: kinase targets listed in tables 3 and 4 (Homo sapiens, UniProt Q13464); experiment: biochemical
Sequence of kinase targets listed in tables 3 and 4 (Homo sapiens, UniProt Q13464) (Q13464 2-1354 limits assumed): as above

[6] = target: kinase targets listed in tables 3 and 4 (Homo sapiens, UniProt Q9BXA7); experiment: biochemical
Sequence of kinase targets listed in tables 3 and 4 (Homo sapiens, UniProt Q9BXA7) (Q9BXA7 whole entry, looked up): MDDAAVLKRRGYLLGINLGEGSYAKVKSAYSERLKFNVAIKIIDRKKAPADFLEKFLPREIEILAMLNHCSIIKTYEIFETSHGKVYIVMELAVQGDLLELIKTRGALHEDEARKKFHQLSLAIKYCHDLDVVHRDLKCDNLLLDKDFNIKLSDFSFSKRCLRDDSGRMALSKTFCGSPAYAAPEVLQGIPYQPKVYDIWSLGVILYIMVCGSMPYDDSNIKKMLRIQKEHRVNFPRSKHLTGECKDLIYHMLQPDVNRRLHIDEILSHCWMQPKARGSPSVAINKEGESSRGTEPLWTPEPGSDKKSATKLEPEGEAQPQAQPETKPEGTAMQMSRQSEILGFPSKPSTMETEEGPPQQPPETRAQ

[7] = target: kinase targets listed in tables 3 and 4 (Homo sapiens, UniProt Q9Y5S2); experiment: biochemical
[8] = PK analysis in mice bearing intracranial U87MG or G7 tumours, subcutaneous dosing; assay type: in vivo, mouse
Experimental: as §5, §6

DMBA/TPA skin papillomas = experiment: DMBA/TPA mouse model of squamous cell carcinoma, topical treatment; assay type: in vivo; conditions: topical 25 μg 5 times per week for 14 weeks, vs DMSO
Experimental: (§7) For DMBA/TPA experiments, 40 FVB mice were treated topically with 25 μg DMBA in acetone on day 1. From day 5, 4.7 μg TPA in acetone was applied 3 times weekly. […] Experimenters were fully blinded to the identity of treatment groups. Mice weights and general conditions were monitored at least 2 times per week, tumor sizes and numbers were recorded weekly. Mice were culled when papillomas reached 12 mm in diameter. Analysis of tumor volume and papilloma numbers were performed blinded to the identity of treatment groups.

[9] = Skin and blood compound concentrations after topical application to FVB mice
Experimental: (§8) Mice were culled 2 hours after final treatment. […] Mice were culled 2 hours, 4 hours, 8 hours or 24 hours after final treatment.
as §7

pMLC2 = pMLC2 immunofluorescence, Operetta high-throughput imaging; assay type: cell-based, human
Source text: Cells were imaged using an Operetta high-throughput imaging platform. Green: pMLC2; yellow: actin; red: whole cell dye; blue: DAPI; Scale bar: 100 μm. (ii) Automated image analysis was undertaken to compare pMLC2 levels in control and irradiated cells. Data are derived from two biological repeats, each analysing >400 cells per condition.
Cells were imaged using an Operetta high-throughput imaging platform. Automated image analysis was used to compare pMLC2 levels. Data from two biological repeats with >400 cells per condition per biological replicate. Data plotted as a percentage of vehicle. […] Cells were imaged using an Operetta high-throughput imaging platform.

Plasma protein binding = assay type: in vitro ADME
ROCK1 [10] = target: T2, ROCK1; experiment: biochemical
MRCKα pS1003 = MRCKα pS1003 immunohistochemical staining of topically treated mouse skin and papillomas; conditions: vs DMSO
Experimental: as §8, §7

E2 cells [11] = experiment: Ex vivo migration assay of irradiated GBM cells on murine brain slices; assay type: cell-based, human; conditions: 100 nM, 2 Gy
G7 intracranial tumours = experiment: Survival of mice bearing G7 intracranial GBM tumours; assay type: in vivo, mouse
Experimental: Female CD1 nude mice were orthotopically injected with 1×10^5 G7 or U87MG cells into the subventricular zone as previously described (16, 17). Tumours were allowed to establish […] magnetic resonance imaging (MRI) to confirm presence of tumour. Radiation treatments were conducted using an XSrtahl Small Animal Radiation Research Platform (SARRP). 5 mg/kg BDP-9066 or vehicle (20% propylene glycol/80% PBS) was given subcutaneously twice daily or at stated time before cull for PK analysis. Tumours were sub-dissected and fresh frozen specimens sent for PK analysis (Vertex, UK). Formalin fixed, paraffin embedded sections were stained for Ki67, HLA or phosphoMYPT1 then scanned using a Hamamatsu Nanozoomer Slide scanning machine with Leica SlidePath Slide imaging software. Algorithms were optimised for each stain individually and automated, quantitative analysis undertaken. The defining of contralateral regions was performed blinded.
FIG. 6. […] (A) Outline of experiment to measure in vivo survival to BDP-9066 treatment. G7 intracranial tumours were allowed to establish for 10 weeks before initiation of treatment. Mice in the RT cohorts received 6×2 Gy whole brain RT over the course of two weeks. Only mice that were culled after the first 3 fractions of RT were included in the analysis to allow for any treatment benefit to take effect. The study was randomised, blinded and the mice stratified across the cohorts based on starting tumour size as assessed by T2 MRI. (B) Kaplan-Meier plot showing survival data. N.S.=not significant, *<p 0.05, **p<0.005. Statistical analysis: Log-rank (Mantel-Cox) test.
Pharmacological inhibition of MRCK when combined with radiotherapy confers a significant survival benefit to intracranial GBM tumour bearing mice. G7 intracranial tumours were established in four cohorts of mice: vehicle, BDP-9066, RT+vehicle and RT+BDP-9066 (FIG. 6A) and the 4 week treatment schedule outlined in FIG. 6A was commenced at 10 weeks post tumour cell injection. The experiment was terminated at 104 days after a final T2 MRI on the remaining mice.

[12] = FVB, mouse, skin, topical, 25 μg

Compound: c1cc(-c2c[nH]c3nccc(N4CCC[C@@]5(CCCCN5)C4)c23)ncn1 [Example E117, (6S)-8-(3-pyrimidin-4-yl-1H-pyrrolo[2,3-b]pyridin-4-yl)-1,8-diazaspiro[5.5]undecane]
response in morphological assay (neurites) (E2 cells [1]): robust dose dependent response
radiation driven MYPT1 phosphorylation (pMYPT1): inhibits; also recorded: opposes
Ki (ROCK2): 5.38 nM
radiation sensitivity measured by clonogenic survival (G7 and E2 cells): no impact
Ki (MRCKβ [2]): 0.0233 nM
Ki (MRCKα): 0.0136 nM
cell viability at higher concentrations (G7 cells; higher concentrations, likely off target toxicity): loss of cell viability
cell viability (G7 cells; sub-micromolar levels / anti-invasive concentrations, G7 cells, listed as BDP-9066): does not affect cell survival; also recorded: No effect
radiation driven sub confluent migration (E2 and G7 cells; 100 nM, G7 and E2 cells): fully oppose
cell speed of irradiated GBM cells (E2 and G7 cells; increasing concentrations, E2 and G7 cells): robust dose response
IC50 (ROCK1 [3]): 10600 nM
IC50 (MRCKβ [4]): 28.3 nM
IC50 [5]: 141 nM
Ki [5]: 54 nM
IC50 [6]: 287 nM
Ki [6]: 136 nM
IC50 [7]: 8.3 nM
Ki [7]: 1.38 nM
penetration of intracranial tumours ([8]; 5 mg/Kg subcutaneous, 30 mins prior to cull, U87MG and G7 tumours, listed as BDP-9066): penetrates intracranial GBM xenografts; also recorded: penetrated intracranial tumours
presence in blood at the time of culling ([8]; 5 mg/kg subcutaneous twice daily for 10 days): micromolar concentrations
bioavailability ([8]; PK profile, data not shown): good bioavailability
clearance ([8]; PK profile, data not shown): rapid clearance
exposure in the brain, contralateral hemisphere ([8]; sub-cutaneous dosing, absence of significant tumour burden): very low exposure
average papilloma volume per mouse (DMBA/TPA skin papillomas): significantly reduced
skin papilloma appearance at study end (DMBA/TPA skin papillomas): appeared visually smaller
total papilloma numbers per mouse (DMBA/TPA skin papillomas): not different
total tumor volume per mouse (DMBA/TPA skin papillomas): significantly reduced
compound in blood at experimental endpoint ([9]; DMBA/TPA FVB mice, topical 25 μg 5 times per week for 14 weeks): no detectable levels; also recorded: undetectable
concentration at 2 h ([9]; FVB, mouse, blood, topical, 25 μg): 0.04 µM
concentration at 14 weeks [9, 12]: > 1 µM
concentration at 2 h [9, 12]: 26 µM
concentration at 24 h [9, 12]: > 16 µM
clearance in the blood ([9]; by deactivation and/or metabolism): rapid clearance
drug levels in the skin compared with blood ([9]; topical 4×25 μg over 2 days, dorsal skin): significantly higher than in blood
mean concentration in the skin ([9]; topical administration, DMBA/TPA experiment): greater than 1 micromolar
level in blood 24 hours after final dosing ([9]; topical single 25 μg or 8×25 μg (4 days on, 2 off, 4 on)): undetectable
compound accumulation on repeated dosing ([9]; topical, repeated 25 μg vs single 10 μg): less than additive
IC50 (pMLC2; Homo sapiens, light or radiation study, irradiated G7 and E2 cells): 56 nM
response in biomarker assay (pMLC2) (pMLC2; cells treated with irradiation): robust dose dependent response
PPB free value (Plasma protein binding): 72.7%
fraction unbound (Plasma protein binding; plasma): 0.727
Ki (ROCK1 [10]): 18.4 nM
MRCKα pS1003 cytoplasmic histoscores in papillomas (MRCKα pS1003; DMBA/TPA mice, topical 25 μg): reduced histoscores
MRCKα pS1003 cytoplasmic histoscores in the treated skin area (MRCKα pS1003; DMBA/TPA mice, topical 25 μg): reduced histoscores
MRCKα pS1003 immunohistochemistry staining (MRCKα pS1003; DMBA/TPA treated skin, topical 25 μg): significant decreases
epidermal MRCKα pS1003 positive staining (MRCKα pS1003; topical 4×25 μg over 2 days, FVB mouse skin): significant reduction; also recorded: significantly reduced
radiation driven ex vivo brain slice invasion (E2 cells [11]): fully oppose
survival, combined with RT vs untreated cohort (G7 intracranial tumours; 6×2 Gy whole brain RT, p=0.0007, listed as BDP-9066): significant survival advantage; also recorded: highly significant increase in survival
survival, combined with RT vs radiation alone (G7 intracranial tumours; 6×2 Gy whole brain RT, p=0.0459): significantly above
survival, compound alone (G7 intracranial tumours; vs untreated cohort): no significant survival benefit

Ki (ROCK2): 21.7 nM
Ki (MRCKβ [2]): 0.0246 nM
Ki (MRCKα): 0.0332 nM
IC50 (ROCK1 [3]): > 30000 nM
IC50 (MRCKβ [4]): 42.2 nM
IC50 [5]: 406 nM
Ki [5]: 251 nM
IC50 [6]: 4360 nM
Ki [6]: 2070 nM
IC50 [7]: 6.9 nM
Ki [7]: 1.15 nM
Ki (ROCK1 [10]): 56.9 nM
Compound: c1csc(-c2c[nH]c3nccc(N4CCC[C@@]5(CCCCN5)C4)c23)n1 [Example E150, 2-[4-[(6S)-1,8-diazaspiro[5.5]undecan-8-yl]-1H-pyrrolo[2,3-b]pyridin-3-yl]thiazole]

Ki (ROCK2): 7.57 nM
Ki (MRCKβ [2]): 0.184 nM
Ki (MRCKα): 0.185 nM
IC50 (ROCK1 [3]): 14400 nM
IC50 (MRCKβ [4]): 426 nM
Ki (ROCK1 [10]): 29.9 nM
Compound: c1csc(-c2c[nH]c3nccc(O[C@@H]4CCCNC4)c23)n1 [Example E212, 2-[4-[[(3R)-3-piperidyl]oxy]-1H-pyrrolo[2,3-b]pyridin-3-yl]thiazole]

Ki (ROCK2): 105 nM
Ki (MRCKβ [2]): 0.0898 nM
Ki (MRCKα): 0.0945 nM
IC50 (ROCK1 [3]): > 30000 nM
IC50 (MRCKβ [4]): 145 nM
Ki (ROCK1 [10]): 390 nM
Compound: c1cc(N2CCCC3(CCCCN3)C2)c2c(-c3ncsn3)c[nH]c2n1 (centres unmarked) [Example E236, 3-[4-[1,8-diazaspiro[5.5]undecan-8-yl]-1H-pyrrolo[2,3-b]pyridin-3-yl]-1,2,4-thiadiazole]
